Test results from patent US10335503B2, “Compound that specifically binds to AMPA receptor” (Public University Corporation Yokohama City University, priority 2015, dated 2019).

What was measured:
[1] = biological target: Dopamine D1 (Homo sapiens, UniProt P21728); assay: Receptor binding panel: Dopamine D1; settings: K-2 at 1 × 10^−7 mol/L
[2] = biological target: Serotonin 5HT1A (Homo sapiens, UniProt P08908); assay: Receptor binding panel: Serotonin 5HT1A; settings: K-2 at 1 × 10^−7 mol/L
[3] = system: Glycine (Strychnine sensitive); assay: Receptor binding panel: Glycine (Strychnine sensitive); settings: K-2 at 1 × 10^−7 mol/L
[4] = biological target: Bradykinin B2 (Homo sapiens, UniProt P30411); assay: Receptor binding panel: Bradykinin B2; settings: K-2 at 1 × 10^−7 mol/L
Chain of Bradykinin B2 (P30411 whole entry): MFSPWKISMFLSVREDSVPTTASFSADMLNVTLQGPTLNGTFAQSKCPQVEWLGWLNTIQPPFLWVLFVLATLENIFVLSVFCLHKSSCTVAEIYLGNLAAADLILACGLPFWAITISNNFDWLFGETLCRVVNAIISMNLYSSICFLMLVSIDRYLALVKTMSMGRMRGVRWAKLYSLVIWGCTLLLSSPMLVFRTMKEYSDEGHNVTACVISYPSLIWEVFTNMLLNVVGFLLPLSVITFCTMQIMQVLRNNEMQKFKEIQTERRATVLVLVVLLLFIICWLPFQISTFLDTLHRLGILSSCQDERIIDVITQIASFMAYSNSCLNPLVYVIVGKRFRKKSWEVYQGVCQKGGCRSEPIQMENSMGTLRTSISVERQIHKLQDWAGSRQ

[5] = biological target: Norepinephrine transporter (Homo sapiens, UniProt P23975); assay: Receptor binding panel: Norepinephrine transporter; settings: K-2 at 1 × 10^−7 mol/L
Chain of Norepinephrine transporter (P23975 whole entry): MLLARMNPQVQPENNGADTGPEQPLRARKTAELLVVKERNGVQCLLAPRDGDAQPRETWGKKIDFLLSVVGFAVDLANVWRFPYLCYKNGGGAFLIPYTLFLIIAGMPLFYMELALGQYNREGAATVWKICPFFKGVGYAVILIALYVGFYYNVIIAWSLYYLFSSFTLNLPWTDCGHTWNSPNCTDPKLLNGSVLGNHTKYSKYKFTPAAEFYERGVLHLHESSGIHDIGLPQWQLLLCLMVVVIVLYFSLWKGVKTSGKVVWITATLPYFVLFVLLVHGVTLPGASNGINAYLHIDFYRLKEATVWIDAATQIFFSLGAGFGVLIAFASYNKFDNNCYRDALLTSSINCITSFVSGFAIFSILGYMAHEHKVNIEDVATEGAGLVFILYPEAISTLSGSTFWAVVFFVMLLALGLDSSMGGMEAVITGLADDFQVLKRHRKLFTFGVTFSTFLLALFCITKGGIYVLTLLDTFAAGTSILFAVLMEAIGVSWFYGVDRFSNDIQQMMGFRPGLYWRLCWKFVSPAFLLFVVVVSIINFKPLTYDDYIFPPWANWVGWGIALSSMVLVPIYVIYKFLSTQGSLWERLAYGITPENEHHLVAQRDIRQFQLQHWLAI

[6] = biological target: Opiate δ (Homo sapiens, UniProt P41143); assay: Receptor binding panel: Opiate δ; settings: K-2 at 1 × 10^−7 mol/L
Chain of Opiate δ (P41143 whole entry): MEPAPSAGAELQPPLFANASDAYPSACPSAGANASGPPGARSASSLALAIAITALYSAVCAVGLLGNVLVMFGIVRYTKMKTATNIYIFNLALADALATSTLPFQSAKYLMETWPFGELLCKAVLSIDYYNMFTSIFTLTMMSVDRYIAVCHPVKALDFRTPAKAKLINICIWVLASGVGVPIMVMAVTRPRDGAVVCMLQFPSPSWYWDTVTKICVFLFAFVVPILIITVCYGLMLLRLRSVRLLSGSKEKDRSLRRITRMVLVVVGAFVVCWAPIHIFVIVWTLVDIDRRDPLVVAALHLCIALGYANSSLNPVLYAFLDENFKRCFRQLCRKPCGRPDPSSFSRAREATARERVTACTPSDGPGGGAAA

[7] = system: Ca channel (Type L, Dihydropyridine); assay: Receptor binding panel: Ca channel (Type L, Dihydropyridine); settings: K-2 at 1 × 10^−7 mol/L
[8] = biological target: Opiate κ (Homo sapiens, UniProt P41145); assay: Receptor binding panel: Opiate κ; settings: K-2 at 1 × 10^−7 mol/L
Chain of Opiate κ (P41145 whole entry): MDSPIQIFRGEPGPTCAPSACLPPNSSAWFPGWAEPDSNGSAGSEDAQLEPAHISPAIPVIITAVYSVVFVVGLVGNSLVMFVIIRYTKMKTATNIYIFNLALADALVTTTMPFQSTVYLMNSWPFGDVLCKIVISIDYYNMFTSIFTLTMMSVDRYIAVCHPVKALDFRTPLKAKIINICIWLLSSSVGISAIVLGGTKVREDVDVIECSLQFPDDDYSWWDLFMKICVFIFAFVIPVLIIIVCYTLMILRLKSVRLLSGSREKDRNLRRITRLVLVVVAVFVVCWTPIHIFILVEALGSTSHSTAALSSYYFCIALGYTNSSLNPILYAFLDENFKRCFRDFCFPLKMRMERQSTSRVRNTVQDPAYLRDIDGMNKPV

[9] = system: K Channel SKCa; assay: Receptor binding panel: K Channel SKCa; settings: K-2 at 1 × 10^−7 mol/L
[10] = system: Leukotriene D4; assay: Receptor binding panel: Leukotriene D4; settings: K-2 at 1 × 10^−7 mol/L
[11] = biological target: Muscarinic M2 (Homo sapiens, UniProt P08172); assay: Receptor binding panel: Muscarinic M2; settings: K-2 at 1 × 10^−7 mol/L
Chain of Muscarinic M2 (P08172 whole entry): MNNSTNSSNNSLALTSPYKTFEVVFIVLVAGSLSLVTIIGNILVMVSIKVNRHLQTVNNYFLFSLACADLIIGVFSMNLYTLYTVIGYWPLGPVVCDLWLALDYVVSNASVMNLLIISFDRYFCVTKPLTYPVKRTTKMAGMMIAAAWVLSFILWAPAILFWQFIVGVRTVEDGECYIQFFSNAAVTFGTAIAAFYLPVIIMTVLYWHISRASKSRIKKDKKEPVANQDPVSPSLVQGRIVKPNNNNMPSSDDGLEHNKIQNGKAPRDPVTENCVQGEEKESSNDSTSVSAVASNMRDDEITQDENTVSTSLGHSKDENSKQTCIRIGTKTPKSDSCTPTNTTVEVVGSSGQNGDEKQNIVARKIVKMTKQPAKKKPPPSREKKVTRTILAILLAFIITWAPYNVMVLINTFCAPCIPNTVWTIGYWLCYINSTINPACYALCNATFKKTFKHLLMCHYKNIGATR

[12] = system: AMPA receptor; assay: Electrophysiological experiment: AMPA current by whole-cell recording in acute hippocampus section; format: cell-based, rat; settings: 150 μM in ACSF for 15 minutes, CA1 pyramidal cell, ground state converted as 1
Procedure: In the LC-MS/MS experiment, all of the synthesized compounds were dissolved in 100% DMSO so as to have a concentration of 2.5 mM, diluted with physiological saline water immediately before administration (PEPA (1.2 pmol/g), M-1 (12 pmol/g), K-2 (12 pmol/g), M-3 (60 pmol/g), and M-2 (240 pmol/g)), and administered by the parenteral route. In the electrophysiological experiment, PEPA and K-2 were dissolved in 100% DMSO so as to have a concentration of 150 mM, diluted with ACSF as a reflux liquid immediately before the experiment so as to have a concentration of 150 μM and then used. […]
A 7- to 8-week-old male SD rat was used. […] The section was left to stand still in ACSF at room temperature for 60 minutes, and then the AMPA current was measured by a whole-cell recording method. 100 μM of picrotoxin and 100 μM of DL-APV were administered under the condition that the ACSF was refluxed at a rate of 3 ml/min, and then only the AMPA current was isolated and measured.
The recording electrode was placed on a pyramidal cell in CA1, and the exciting electrode was placed on the Schaffer fiber separated away from the recording cell by 100 to 200 μm. […] The AMPA current in the ground state was recorded for 5 minutes, reflux was thereafter performed using ACSF added with PEPA or K-2 for 15 minutes, and then the AMPA current was recorded in the reflux liquid not containing PEPA or K-2 for 30 minutes. […]

[13] = biological target: VIP 1 (Homo sapiens, UniProt P32241); assay: Receptor binding panel: VIP 1; settings: K-2 at 1 × 10^−7 mol/L
Chain of VIP 1 (P32241 31-457): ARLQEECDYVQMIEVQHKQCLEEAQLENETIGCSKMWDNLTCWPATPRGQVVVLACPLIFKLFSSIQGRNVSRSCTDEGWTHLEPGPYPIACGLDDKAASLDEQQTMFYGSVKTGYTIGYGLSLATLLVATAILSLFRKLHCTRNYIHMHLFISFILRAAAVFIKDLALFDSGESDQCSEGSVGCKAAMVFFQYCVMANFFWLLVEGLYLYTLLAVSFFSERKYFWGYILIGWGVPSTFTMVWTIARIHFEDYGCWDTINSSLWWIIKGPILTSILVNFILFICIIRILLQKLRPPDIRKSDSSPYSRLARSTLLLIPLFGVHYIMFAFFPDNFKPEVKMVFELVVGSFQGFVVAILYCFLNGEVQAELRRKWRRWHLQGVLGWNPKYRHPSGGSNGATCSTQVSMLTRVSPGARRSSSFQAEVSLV

[14] = biological target: Serotonin 5HT2A (Homo sapiens, UniProt P28223); assay: Receptor binding panel: Serotonin 5HT2A; settings: K-2 at 1 × 10^−7 mol/L
Chain of Serotonin 5HT2A (P28223 whole entry): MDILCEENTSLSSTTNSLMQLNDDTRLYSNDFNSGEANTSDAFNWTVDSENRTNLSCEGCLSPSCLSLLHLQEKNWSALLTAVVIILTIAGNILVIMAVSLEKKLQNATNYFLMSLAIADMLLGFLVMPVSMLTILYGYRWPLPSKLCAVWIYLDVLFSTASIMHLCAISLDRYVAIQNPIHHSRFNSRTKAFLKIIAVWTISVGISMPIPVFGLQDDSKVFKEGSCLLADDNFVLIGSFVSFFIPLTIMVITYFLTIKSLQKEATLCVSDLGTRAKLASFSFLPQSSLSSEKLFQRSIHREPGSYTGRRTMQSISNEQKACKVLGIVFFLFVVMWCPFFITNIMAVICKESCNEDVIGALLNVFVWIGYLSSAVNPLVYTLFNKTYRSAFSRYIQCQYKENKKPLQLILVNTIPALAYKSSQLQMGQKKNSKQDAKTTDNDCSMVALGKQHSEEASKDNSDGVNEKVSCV

[15] = biological target: Angiotensin AT1 (Homo sapiens, UniProt P30556); assay: Receptor binding panel: Angiotensin AT1; settings: K-2 at 1 × 10^−7 mol/L
Chain of Angiotensin AT1 (P30556 whole entry): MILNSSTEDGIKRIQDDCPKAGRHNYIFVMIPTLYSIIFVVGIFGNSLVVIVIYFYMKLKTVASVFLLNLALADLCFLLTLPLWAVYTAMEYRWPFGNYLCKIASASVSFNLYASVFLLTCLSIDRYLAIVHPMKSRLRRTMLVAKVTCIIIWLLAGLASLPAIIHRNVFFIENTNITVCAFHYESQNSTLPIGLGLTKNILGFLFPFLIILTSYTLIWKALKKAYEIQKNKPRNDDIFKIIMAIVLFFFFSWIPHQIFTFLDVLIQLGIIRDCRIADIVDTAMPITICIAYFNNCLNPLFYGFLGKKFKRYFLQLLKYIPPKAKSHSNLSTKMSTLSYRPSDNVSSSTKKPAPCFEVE

[16] = system: Estrogen; assay: Receptor binding panel: Estrogen; settings: K-2 at 1 × 10^−7 mol/L
[17] = biological target: Neurokinin NK2 (Homo sapiens, UniProt P21452); assay: Receptor binding panel: Neurokinin NK2; settings: K-2 at 1 × 10^−7 mol/L
Chain of Neurokinin NK2 (P21452 whole entry): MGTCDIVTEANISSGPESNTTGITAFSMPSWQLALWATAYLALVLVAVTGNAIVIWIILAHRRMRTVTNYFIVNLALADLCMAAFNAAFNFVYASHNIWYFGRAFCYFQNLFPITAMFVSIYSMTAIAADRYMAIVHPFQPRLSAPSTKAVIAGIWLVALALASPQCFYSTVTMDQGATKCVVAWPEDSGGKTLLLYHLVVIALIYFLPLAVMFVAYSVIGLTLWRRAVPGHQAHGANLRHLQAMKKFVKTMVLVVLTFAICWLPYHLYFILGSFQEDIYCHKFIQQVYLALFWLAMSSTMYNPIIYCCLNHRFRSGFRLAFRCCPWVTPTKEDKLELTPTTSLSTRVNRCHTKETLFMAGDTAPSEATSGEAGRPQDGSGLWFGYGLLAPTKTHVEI

Chain of Dopamine D1 (P21728 whole entry): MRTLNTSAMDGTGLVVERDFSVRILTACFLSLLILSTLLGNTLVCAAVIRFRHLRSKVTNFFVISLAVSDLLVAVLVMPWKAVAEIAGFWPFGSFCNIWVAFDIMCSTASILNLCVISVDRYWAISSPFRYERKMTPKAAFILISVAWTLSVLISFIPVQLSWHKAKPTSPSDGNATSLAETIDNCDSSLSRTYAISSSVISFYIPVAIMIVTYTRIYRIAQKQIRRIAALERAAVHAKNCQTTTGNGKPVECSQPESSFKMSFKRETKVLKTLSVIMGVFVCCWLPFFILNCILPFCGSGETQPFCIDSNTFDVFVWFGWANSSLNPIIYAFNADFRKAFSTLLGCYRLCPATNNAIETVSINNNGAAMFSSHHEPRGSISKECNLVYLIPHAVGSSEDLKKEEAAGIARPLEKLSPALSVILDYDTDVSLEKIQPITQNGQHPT
Chain of Serotonin 5HT1A (P08908 whole entry): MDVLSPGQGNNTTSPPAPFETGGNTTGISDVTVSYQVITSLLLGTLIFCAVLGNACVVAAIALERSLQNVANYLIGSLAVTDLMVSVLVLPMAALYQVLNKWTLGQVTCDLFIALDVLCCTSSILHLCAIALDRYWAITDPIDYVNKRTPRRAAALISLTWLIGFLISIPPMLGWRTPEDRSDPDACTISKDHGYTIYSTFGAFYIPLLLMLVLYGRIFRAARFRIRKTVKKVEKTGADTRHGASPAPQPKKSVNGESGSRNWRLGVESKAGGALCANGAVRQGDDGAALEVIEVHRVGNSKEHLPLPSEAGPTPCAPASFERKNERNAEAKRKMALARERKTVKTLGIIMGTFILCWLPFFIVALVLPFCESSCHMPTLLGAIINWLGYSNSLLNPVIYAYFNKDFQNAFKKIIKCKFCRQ

**Q.** For `CN(CCSc1cc(F)c(OCC(N)=O)c(F)c1)S(=O)(=O)c1ccccc1` [K-2, {4-[2-(benzenesulfonyl-methyl-amino)-ethylsulfanil]-2,6-difluoro-phenoxy}-acetamide], which inhibition at 0.1 µM [1] is on record?
**A.** 10.2%

**Q.** What about the inhibition at 0.1 µM [2] of the same compound?
**A.** 1.98%

**Q.** And the “Inhibition (%)” value [3]?
**A.** 8.46%

**Q.** What about the inhibition at 0.1 µM [4] of the same compound?
**A.** 10.3%

**Q.** And the inhibition at 0.1 µM [5]?
**A.** 0%

**Q.** And the inhibition at 0.1 µM [6]?
**A.** 0.3%

**Q.** What about the “Inhibition (%)” value [7] of the same compound?
**A.** 0.53%

**Q.** What about the inhibition at 0.1 µM [8] of the same compound?
**A.** 0%

**Q.** And the “Inhibition (%)” value [9]?
**A.** 0.00%

**Q.** What about the “Inhibition (%)” value [10] of the same compound?
**A.** 0.16%

**Q.** What about the inhibition at 0.1 µM [11] of the same compound?
**A.** 0.51%

**Q.** What about the “ratio of AMPA current to reference value” [12] of the same compound?
**A.** 1.7±0.22

**Q.** What about the inhibition at 0.1 µM [13] of the same compound?
**A.** 0%

**Q.** What about the inhibition at 0.1 µM [14] of the same compound?
**A.** 9.32%

**Q.** And the inhibition at 0.1 µM [15]?
**A.** 1.52%

**Q.** What about the “Inhibition (%)” value [16] of the same compound?
**A.** 2.83%

**Q.** What about the inhibition at 0.1 µM [17] of the same compound?
**A.** 0.61%
